This note sets out measurements from patent publication US8835445B2, “Dihydrofolate reductase inhibitors” (Trius Therapeutics, Inc., priority 2010, dated 2014).

In one experiment the target is human DHFR (Homo sapiens (Human), UniProt P00374). Briefly: DHFR enzymatic inhibition (Ki), human DHFR. The experiment is classed as biochemical.
The test system of the next experiment is S. aureus. Briefly: Antibacterial activity (MIC), whole-cell bacterial growth inhibition. It is filed as cell-based, Staphylococcus aureus. To be noted: Staphylococcus aureus. The text has this: Antibacterial activity as measured by the minimal inhibitory concentrations (MIC) and minimal bactericidal concentrations of compounds are well known (see., e.g., National Committee for Clinical Laboratory Standards 2000 Performance standards for antimicrobial disk susceptibility tests: approved standard, 7th ed. M2-A7, vol. 20, no. 1, Committee for Clinical Laboratory Standards, Wayne, Pa.) In vitro testing for antibacterial activity may be accomplished through use of a whole-cell bacterial growth inhibition assay. For example, an […] assay identifies a substance that inhibits bacterial growth. Microtiter plates are prepared with serial dilutions of the test compound, adding to the preparation a given amount of growth substrate, and providing a preparation of bacteria. Inhibition of bacterial growth is determined, for example, by observing changes in optical densities of the bacterial cultures. Inhibition of bacterial growth is determined, for example, by comparing (in the presence and absence of a test compound) the rate of growth or the absolute growth of bacterial cells. Inhibition includes a reduction of one of the above measurements by at least 20%.

The target of another experiment is S. aurues DHFR (Staphylococcus aureus, UniProt P0A017). Briefly: biochemical. The experiment is classed as biochemical.
[1] abbreviates: S. aureus in 20% serum, read-out: MIC in μg/ml S. aureus in 20% serum.
[2] abbreviates: S. aureus, read-out: MIC in μg/ml S. aureus.

Structures are written as SMILES. Values after ≈ are worked out from the molar mass of the structure shown. Where two headings read alike, the source gives them in different places.

Sequence of human DHFR (P00374 whole entry): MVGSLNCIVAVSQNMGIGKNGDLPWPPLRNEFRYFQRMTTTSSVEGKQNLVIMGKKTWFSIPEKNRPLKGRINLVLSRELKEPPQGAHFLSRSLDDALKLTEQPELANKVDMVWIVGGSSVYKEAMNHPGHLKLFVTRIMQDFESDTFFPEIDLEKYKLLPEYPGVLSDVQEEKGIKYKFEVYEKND

As for `COc1ccccc1-c1ccc2c(N)nc(N)nc2c1` [Compound 1, 7-(2-methoxyphenyl)quinazoline-2,4-diamine], the Ki (commonly the equilibrium dissociation constant of an inhibitor or competing ligand from its target) was 1140 nM at human DHFR and 2.7 nM at S. aurues DHFR. Also, the MIC in the experiment with S. aureus (setting [1]) was 4 µg/mL (≈ 15 µM); in the experiment with S. aureus (setting [2]) it was 2 µg/mL (≈ 7.51 µM).

For `Nc1nc(N)c2ccc(-c3ccccc3N)cc2n1` [Compound 2, 7-(2-aminophenyl)quinazoline-2,4-diamine], the Ki at human DHFR amounted to 3920 nM; on S. aurues DHFR (S. aureus DHFR), 15.3 nM. Also, the MIC in the experiment with S. aureus (setting [1]) and in the experiment with S. aureus (setting [2]) was 8 µg/mL (≈ 31.8 µM) each time.

As to `COc1ccc(OC)c(-c2ccc3c(N)nc(N)nc3c2)c1` [Compound 3, 7-(2,5-dimethoxyphenyl) quinazoline-2,4-diamine], the figures for the Ki on human DHFR and at S. aurues DHFR were 345 nM and 4 nM, respectively. Further, the MIC with S. aureus (setting [1]) is 8 µg/mL (≈ 27 µM); with S. aureus (setting [2]), 4 µg/mL (≈ 13.5 µM).

In the case of `Nc1ccc(-c2ccc3c(N)nc(N)nc3c2)cc1` [Compound 4, 7-(4-aminophenyl)quinazoline-2,4-diamine], the Ki stood at 702 nM on human DHFR and 2.7 nM at S. aurues DHFR (S. aureus DHFR). The MIC with S. aureus (setting [1]) was found to be 2 µg/mL (≈ 7.96 µM); in the experiment with S. aureus (setting [2]) it was 4 µg/mL (≈ 15.9 µM).

`Cc1cc2c(N)nc(N)nc2cc1-c1ccc(N)cc1` [Compound 5, 7-(4-aminophenyl)-6-methylquinazoline-2,4-diamine]: the Ki on human DHFR was 138 nM; at S. aurues DHFR (S. aureus DHFR), 0.89 nM. Further, the MIC in the experiment with S. aureus (setting [1]) and in the experiment with S. aureus (setting [2]) was 1 µg/mL (≈ 3.77 µM) in each case.

As for `CC(=O)c1cccc(-c2ccc3c(N)nc(N)nc3c2)c1` [Compound 6, 1-(3-(2,4-diaminoquinazolin-7-yl)-phenyl)ethanone], the results for the inhibition constant (Ki) at human DHFR and on S. aurues DHFR (S. aureus DHFR) were 323 nM and 4.4 nM, respectively. In addition, the MIC in the experiment on S. aureus (setting [1]) came out at 8 µg/mL (≈ 28.7 µM); with S. aureus (setting [2]) it was 4 µg/mL (≈ 14.4 µM).

As for `CC(=O)c1cccc(-c2cc3nc(N)nc(N)c3cc2C)c1` [Compound 7, 1-(3-(2,4-diamino-6-methylquinazolin-7-yl)-phenyl)ethanone], the Ki on human DHFR is 26.3 nM; at S. aurues DHFR (S. aureus DHFR), 0.48 nM. Also, the MIC in the experiment with S. aureus (setting [1]) was 1 µg/mL (≈ 3.42 µM); with S. aureus (setting [2]) it was 0.5 µg/mL (≈ 1.71 µM).

As to `COc1ccc(OC)c(-c2cc3nc(N)nc(N)c3cc2C)c1` [Compound 8, 7-(2,5-dimethoxyphenyl)-6-methylquin-azoline-2,4-diamine], the Ki at human DHFR turned out to be 27.5 nM; on S. aurues DHFR it was 0.66 nM. In addition, the MIC in the experiment on S. aureus (setting [1]) and in the experiment on S. aureus (setting [2]) was 1 µg/mL (≈ 3.22 µM) throughout.

Regarding `Cc1cc2c(N)nc(N)nc2cc1-c1cccc2[nH]ccc12` [Compound 9, 7-(1H-indol-4-yl)-6-methylquinazoline-2,4-diamine], the results for the Ki on human DHFR and on S. aurues DHFR (S. aureus DHFR) were 245 nM and 0.61 nM, respectively. The MIC is 1 µg/mL (≈ 3.46 µM) in the experiment on S. aureus (setting [1]) and 0.25 µg/mL (≈ 0.864 µM) in the experiment with S. aureus (setting [2]).

`COc1ccc(-c2cc3nc(N)nc(N)c3cc2Cn2ccnc2)cc1OC` [Compound 10, 6-((1H-imidazol-1-yl)methyl)-7-(3,4-dimethoxyphenyl)quinazoline-2,4-diamine]: the figures for the Ki on human DHFR and at S. aurues DHFR (S. aureus DHFR) were 53.6 nM and 0.51 nM, respectively. Besides, the MIC in the experiment on S. aureus (setting [1]) came to 2 µg/mL (≈ 5.31 µM); in the experiment with S. aureus (setting [2]) it was 8 µg/mL (≈ 21.3 µM).

In the case of `Cc1cc2c(N)nc(N)nc2cc1-c1cccc(C#N)c1` [Compound 11, 3-(2,4-diamino-6-methylquinazolin-7-yl)benzonitrile], the results for the Ki on human DHFR and on S. aurues DHFR (S. aureus DHFR) were 55 nM and 1.2 nM, respectively. Besides, the figures for the MIC with S. aureus (setting [1]) and in the experiment on S. aureus (setting [2]) were 2 µg/mL (≈ 7.26 µM) and 1 µg/mL (≈ 3.63 µM), respectively.

For the molecule `Cc1cc2c(N)nc(N)nc2cc1-c1cc(N)cc(C#N)c1` [Compound 12, 3-amino-5-(2,4-diamino-6-methylquin-azolin-7-yl)benzonitrile], the results for the Ki at human DHFR and at S. aurues DHFR (S. aureus DHFR) were 44 nM and 0.65 nM, respectively. For the same molecule, the MIC in the experiment on S. aureus (setting [1]) and with S. aureus (setting [2]) was 1 µg/mL (≈ 3.44 µM) throughout.

`Cc1cc2c(N)nc(N)nc2cc1-c1cccc(CC#N)c1` [Compound 13, 2-(3-(2,4-diamino-6-methylquinazolin-7-yl)-phenyl)acetonitrile]: the Ki on human DHFR came to 44 nM; at S. aurues DHFR (S. aureus DHFR), 0.5 nM. Besides, the MIC turned out to be 2 µg/mL (≈ 6.91 µM) with S. aureus (setting [1]) and 0.5 µg/mL (≈ 1.73 µM) in the experiment on S. aureus (setting [2]).

With `COCCn1c(-c2ccc3c(N)nc(N)nc3c2)nc2cc(C)c(C)cc21` [Compound 14, 7-(1-(2-methoxyethyl)-5,6-dimethyl-1H-benzo[d]-imidazol-2-yl)quinazoline-2,4-diamine], the Ki turned out to be 263 nM at human DHFR and 1.6 nM on S. aurues DHFR (S. aureus DHFR). Further, the MIC in the experiment with S. aureus (setting [1]) and with S. aureus (setting [2]) was 4 µg/mL (≈ 11 µM) in each case.

As to `Cc1cc2nc(C3CC3)n(-c3ccc4c(N)nc(N)nc4c3)c2cc1C` [Compound 15, 7-(2-cyclopropyl-5,6-dimethyl-1H-benzo[d]-imidazol-1-yl)quinazoline-2,4-diamine], the Ki on human DHFR is 1160 nM; on S. aurues DHFR (S. aureus DHFR), 0.14 nM. Besides, the figures for the MIC in the experiment on S. aureus (setting [1]) and in the experiment on S. aureus (setting [2]) were 1 µg/mL (≈ 2.9 µM) and at most 0.5 µg/mL, respectively.

With `Cc1cc2nc(-c3ccccn3)n(-c3ccc4c(N)nc(N)nc4c3)c2cc1C` [Compound 16, 7-(5,6-dimethyl-2-(pyridin-2-yl)-1H-benzo[d]-imidazol-1-yl)quinazoline-2,4-diamine], the Ki on human DHFR was 572 nM; at S. aurues DHFR (S. aureus DHFR) it was 0.022 nM. The MIC with S. aureus (setting [1]) is 0.25 µg/mL (≈ 0.655 µM); in the experiment with S. aureus (setting [2]), at most 0.125 µg/mL.

With `Cc1cc2nc(-c3cccs3)n(-c3ccc4c(N)nc(N)nc4c3)c2cc1C` [Compound 18, 7-(5,6-dimethyl-2-(thiophen-2-yl)-1H-benzo[d]-imidazol-1-yl)quinazoline-2,4-diamine], the values for the Ki at human DHFR and on S. aurues DHFR (S. aureus DHFR) were 1030 nM and 0.005 nM, respectively. Also, the MIC with S. aureus (setting [1]) is 0.5 µg/mL (≈ 1.29 µM); in the experiment on S. aureus (setting [2]), at most 0.125 µg/mL.

In the case of `Cc1cc2nc(N3CCOCC3)n(-c3ccc4c(N)nc(N)nc4c3)c2cc1C` [Compound 19, 7-(5,6-dimethyl-2-morpholino-1H-benzo[d]-imidazol-1-yl)quinazoline-2,4-diamine], the values for the inhibitory constant (Ki) on human DHFR and on S. aurues DHFR (S. aureus DHFR) were 1090 nM and 0.6 nM, respectively. For the same molecule, the MIC in the experiment with S. aureus (setting [1]) worked out at 4 µg/mL (≈ 10.3 µM); in the experiment with S. aureus (setting [2]) it was 1 µg/mL (≈ 2.57 µM).

For `COc1ccc2nc(SCCC(C)(F)F)n(-c3ccc4c(N)nc(N)nc4c3)c2c1` [Compound 20, 7-(2-(3,3-difluorobutylthio)-6-methoxy-1H-benzo-[d]imidazol-1-yl)quinazoline-2,4-diamine], the figures for the Ki at human DHFR and on S. aurues DHFR (S. aureus DHFR) were 586 nM and 0.12 nM, respectively. Also, the MIC amounted to 4 µg/mL (≈ 9.29 µM) in the experiment on S. aureus (setting [1]) and 0.5 µg/mL (≈ 1.16 µM) in the experiment on S. aureus (setting [2]).

On to `Cc1cc2nc(-c3ccsc3)n(-c3ccc4c(N)nc(N)nc4c3)c2cc1C` [Compound 21, 7-(5,6-dimethyl-2-(thiophen-3-yl)-1H-benzo[d]-imidazol-1-yl)quinazoline-2,4-diamine], for which the Ki on human DHFR worked out at 663 nM; on S. aurues DHFR (S. aureus DHFR), 0.012 nM. The MIC with S. aureus (setting [1]) is 0.25 µg/mL (≈ 0.647 µM); in the experiment with S. aureus (setting [2]) it was at most 0.125 µg/mL.

As for `Cc1cc2nc(-c3nccs3)n(-c3ccc4c(N)nc(N)nc4c3)c2cc1C` [Compound 22, 7-[5,6-dimethyl-2-(thiazol-2-yl)-1H-benzo[d]-imidazol-1-yl]quinazoline-2,4-diamine], the Ki on human DHFR stood at 93.5 nM; on S. aurues DHFR (S. aureus DHFR), 0.002 nM. Further, the MIC in the experiment with S. aureus (setting [1]) and in the experiment with S. aureus (setting [2]) was at most 0.125 µg/mL in each case.

On to `COc1cc2nc(-c3nccs3)n(-c3cc4nc(N)nc(N)c4cc3Cl)c2cc1OC` [Compound 23, 6-chloro-7-(5,6-dimethoxy-2-(thiazol-2-yl)-1H-benzo[d]imidazol-1-yl)quinazo-line-2,4-diamine], for which the Ki at human DHFR was 320 nM; at S. aurues DHFR (S. aureus DHFR), 0.011 nM. The MIC is 0.5 µg/mL (≈ 1.1 µM) in the experiment with S. aureus (setting [1]) and at most 0.125 µg/mL with S. aureus (setting [2]).

On to `COc1cc2nc(-c3nccs3)n(-c3cc4nc(N)nc(N)c4cc3C)c2cc1OC` [Compound 24, 7-(5,6-dimethoxy-2-(thiazol-2-yl)-1H-benzo[d]-imidazol-1-yl)-6-methylquin-azoline-2,4-diamine], for which the Ki on human DHFR amounted to 170 nM; on S. aurues DHFR (S. aureus DHFR) it was 0.019 nM. Further, the MIC in the experiment with S. aureus (setting [1]) and in the experiment with S. aureus (setting [2]) was at most 0.5 µg/mL each time.

As to `Cc1cc2nc(-c3nccs3)n(-c3cc4nc(N)nc(N)c4cc3Cl)c2cc1C` [Compound 25, 6-chloro-7-(5,6-dimethyl-2-(thiazol-2-yl)-1H-benzo[d]imidazol-1-yl)quinazoline-2,4-diamine], the Ki is 7.6 nM at human DHFR and 0.011 nM at S. aurues DHFR (S. aureus DHFR). Besides, the results for the MIC in the experiment on S. aureus (setting [1]) and in the experiment on S. aureus (setting [2]) were 1 µg/mL (≈ 2.37 µM) and at most 0.125 µg/mL, respectively.

Take `Cc1cc2nc(-c3nccs3)n(-c3cc4nc(N)nc(N)c4cc3C)c2cc1C` [Compound 26, 7-(5,6-dimethyl-2-(thiazol-2-yl)-1H-benzo[d]-imidazol-1-yl)-6-methylquin-azoline-2,4-diamine]: the Ki at human DHFR amounted to 2.9 nM; on S. aurues DHFR, 0.03 nM. Moreover, the MIC with S. aureus (setting [1]) and in the experiment on S. aureus (setting [2]) was at most 0.125 µg/mL throughout.

For `Cc1cc2c(N)nc(N)nc2cc1-c1cnc2[nH]ccc2c1` [Compound 27, 6-methyl-7-(1H-pyrrolo[2,3-b]pyridin-5-yl)quin-azoline-2,4-diamine], the Ki on human DHFR was determined as 235 nM; on S. aurues DHFR (S. aureus DHFR) it was 2.6 nM. The MIC with S. aureus (setting [1]) and in the experiment on S. aureus (setting [2]) was 4 µg/mL (≈ 13.8 µM) in each case.

`Cc1c(C(=O)OC(C)(C)C)nc(-c2cccs2)n1-c1ccc2c(N)nc(N)nc2c1` [Compound 39, tert-butyl 1-(2,4-diaminoquinazolin-7-yl)-5-methyl-2-thiophen-2-yl)-1H-imidazole-4-carboxylate]: the MIC was 2 µg/mL (≈ 4.73 µM) with S. aureus (setting [1]) and 1 µg/mL (≈ 2.37 µM) with S. aureus (setting [2]).
